Assay results reported in patent publication US8846393B2, “Methods of improving stem cell homing and engraftment” (Gamida-Cell Ltd., priority 2005, dated 2014).

System: NOD/SCID mice
Assay: In vivo analysis of homing of CFSE-labeled cells to bone marrow
Text: FIGS. 1a-1i are a graphic representation of flow cytometry analysis of the effect of nicotinamide on homing of hematopoietic stem cells into bone marrow of NOD/SCID mice. Non-cultured mononuclear cells or their entire progeny following 3-week expansion with cytokines and nicotinamide (cytokines+NA), or cytokines alone (cytokines) were labeled with CFSE and infused into sublethally irradiated NOD/SCID mice (10×10^6 cells/mouse for the non-cultured group containing 5×10^4 CD34+ cells and the total progeny of 5×10^4 CD34+ cells following 3-week expansion with or without nicotinamide; 20×10^6 cells/mouse containing 180×10^4 CD34+ cells). FIG. 1a is a histogram of the results of flow cytometry of recipient's bone marrow cells showing homing of CFSE+/CD34+ cells after transplantation. FIG. 1b is a histogram of the results of flow cytometry of recipient's bone marrow cells showing homing of total CFSE+ cells after transplantation. Homing of human cells is presented as number of positive events (cytometry) per 100,000 BM cells analyzed. Each bar represents the average ±SE of 3 independent experiments (6-7 mice/experimental group). […] Total human cells that home to the BM are gated (see area R2) based on low side scatter (y axis) and log fluorescence distribution of CFSC expression (x axis) (FIGS. 1c-1f). The bright fluorescence of CFSE was sufficient to separate labeled human cells from unlabeled murine cells by at least 1 log. Cells gated in R2 were then analyzed for CFSE (x axis) and CD34-APC (y axis) (FIGS. 1g-1i). […] After labeling, cells were washed three times in PBS supplemented with 10% FCS and analyzed by flow cytometry for fluorescence intensity, then injected intravenously into sublethally irradiated NOD/SCID mice (10-20 million cells per mouse). […] Homing of human cells was detected by flow cytometry via visualization of CFSE-stained cells over a background of unlabeled murine cells. The bright fluorescence of CFSE was sufficient to separate labeled human cells from unlabeled murine cells by at least 1 log. […]

NC(=O)c1cccnc1 [nicotinamide]
homing of CD34+ cells to bone marrow relative to non-cultured CD34+ cells (3-week culture with cytokines + nicotinamide, 24 hours post transplantation, n=21, p<0.05): 6 fold
homing of cultured cells (MNC) compared to nicotinamide-untreated cells (3-week culture with cytokines + nicotinamide, total CFSE+ cells, 24 hours post transplantation, n=21, p<0.05): 2 fold
homing to bone marrow over identical cells cultured without nicotinamide (summary statement on Example 2, mononuclear cells exposed to nicotinamide before transplantation): sixfold
